Molecules are shown by their SMILES.

One series deals with FmlH (Escherichia coli, UniProt A0A0H2V7F6). Kind of series: ELISA of FmlH lectin domain binding with TF antigen as competitive ligand. Set-up: species or system uropathogenic Escherichia coli (UPEC). Particulars: for loss of activity relative to parent compound I: FmlH ELISA IC50 ratio. (In general: In an ELISA, binding on a coated surface is turned into a signal by an enzyme label.)

The next series in a line: Mouse pharmacokinetics. The class given is in vivo, C3H/HeN mice. Particulars: mice, PO.
The nature of series [1]: In vivo pharmacokinetics in mice. Particulars: mice plasma PK.
For series [2] the following is noted: rats; cited from earlier work.
For series [3] the following is noted: cited from earlier work.

With `CC(=O)N[C@H]1[C@H](Oc2cccc(C(F)(F)F)c2-c2cccc(CS(C)(=O)=O)c2)O[C@H](CO)[C@H](O)[C@@H]1O` [Compound 9], the “loss of activity relative to parent compound I” value at FmlH is given as ~ 10 fold. The same measure, in the same setting: for `CC(=O)N[C@H]1[C@H](Oc2cccc(C(F)(F)F)c2-c2cccc(C(=O)NS(C)(=O)=O)c2)O[C@H](CO)[C@H](O)[C@@H]1O` [Compound 11] the value was ~ 10 fold.

As to `CS(=O)(=O)Nc1cccc(-c2ccccc2C[C@@H]2O[C@H](CO)[C@H](O)[C@H](O)[C@H]2F)c1` [Compound 28], the “improvement of potency on replacing 2-position OH with F” value on FmlH (FmlH ELISA, relative to 27) is listed as 2 fold. On to `CS(=O)(=O)Nc1cccc(-c2ccccc2C[C@@H]2O[C@H](CO)[C@H](O)[C@H](O)[C@H]2[N+](=O)[O-])c1` [Compound 34], for which the IC50 entry at FmlH (FmlH ELISA, average of four replicates) is reported as “all activity against FmlH was eliminated”. Take `CC(=O)N[C@H]1[C@H](Oc2cccc(C(F)(F)F)c2-c2ccc(F)cc2)O[C@H](CO)[C@H](O)[C@@H]1O` [Compound 69]: in the series “Mouse pharmacokinetics”, the “urine concentration relative to FmlH IC50” value is “over 300 fold”. The urine concentration achieved in “Mouse pharmacokinetics” (high urine concentration quoted in the conclusion) stood at 61 µM. Moreover, the “AUC relative to 67” value in series [1] is roughly 4 fold. For the molecule `CC(=O)N[C@H]1[C@H](Oc2cccc(C(F)(F)F)c2-c2cccc(NS(C)(=O)=O)c2)O[C@H](CO)[C@H](O)[C@@H]1O` [I], the “oral bioavailability (F)” value in series [2] is on record as less than 1%. Further, the metabolic stability result in series [3] (SGF, SIF, mouse liver microsomes, blood plasma) is listed as “good metabolic stability”. The “stability in plasma and simulated gut and intestinal fluids” value in series [3] is reported as “good stability”.
